A word on the mortality: it is the share of the test organisms that died. As a reminder, the MIC is the lowest concentration that inhibits growth of the organism. A high value points to a less susceptible organism.

Data set [1] is described as follows: Membrane permeabilization activity assessed as release of calcein from liposomes after 5 mins by fluorescence assay.
Data set [2] concerns Escherichia coli. Briefly: Bactericidal activity against clinical isolates of Escherichia coli PGI/DML02292 assessed as surface blebs at 4 times MIC after 30 mins by […] microscopy relative to control. Format: functional, organism-based.
The nature of data set [3]: Toxicity in albino mouse assessed as mortality at 15 mg/kg, iv. The data set is classed as organism-based. On the set-up: dose 15 mg/kg, route intravenous. Particulars: in vivo.
Data set [4] has as its system Escherichia coli. Briefly: Antibacterial activity against Escherichia coli PGI/DML02292 infected in Swiss albino mouse assessed as log reduction at 10 mg/kg administered at 1 hr post infection relative to control. The data set is classed as functional.
In another data set the test system is Plasma. The data set can be described thus: Drug degradation in human plasma at 1 ug/ml after 24 hrs by RP-HPLC analysis. Format: ADME, cell-free.
For the next data set, the system named is Staphylococcus aureus. Briefly: Antibacterial activity against Staphylococcus aureus PGI/DML03149 infected in Swiss albino mouse assessed as log reduction at 5 mg/kg administered […] at 1 hr post infection relative to control. Format: functional.
Another data set relates to Enterococcus faecalis. The data set can be described thus: Antibacterial activity against clinical isolates of gentamicin-resistant Enterococcus faecalis GMCH/R-Gen011 after overnight incubation by microdilution broth assay. Format: functional. In general terms: In broth dilution the organism is exposed to a series of concentrations in liquid medium.
Data set [5] in a line: Toxicity in albino mouse assessed as mortality at 90 mg/kg, iv. The following applies: in vivo. Also on record: dose 90 mg/kg, route intravenous. The data set is classed as organism-based.
The test system of data set [6] is Escherichia coli. The data set can be described thus: Induction of membrane damage in Escherichia coli PGI/DML02292 at 6 ug/ml after 30 mins by propidium iodide staining-based flow cytometry relative to control. Format: functional.
In the next data set the test system is Mus musculus. Briefly: Toxicity in albino mouse assessed as mortality latency at 120 mg/kg, iv. The data set is classed as organism-based. On the set-up: dose 120 mg/kg, route intravenous. The following applies: in vivo.
The test system of data set [7] is Escherichia coli. Briefly: Antibacterial activity against clinical isolates of imipenem-resistant Escherichia coli PGI/DML02292 after overnight incubation by microdilution broth assay. Format: functional.
Another data set deals with Streptococcus pneumoniae. Briefly: Antibacterial activity against clinical isolates of Streptococcus pneumoniae PGI/DML02468 after overnight incubation by microdilution broth assay. Format: functional.
The nature of data set [8]: Toxicity in albino mouse assessed as mortality at 5 mg/kg, iv. On the set-up: dose 5 mg/kg, route intravenous. The data set is classed as organism-based. The following applies: in vivo.
In data set [9] the test system is Staphylococcus epidermidis. Briefly: Antibacterial activity against clinical isolates of ampicillin-resistant Staphylococcus epidermidis GMCH/R-Amp008 after overnight incubation by microdilution broth assay. Format: functional.
Data set [10] relates to Escherichia coli. Briefly: Induction of membrane damage in Escherichia coli PGI/DML02292 at 3 ug/ml after 30 mins by propidium iodide staining-based flow cytometry relative to control. The data set is classed as functional. In general terms: In flow cytometry, cells or beads pass a laser one at a time.
The next data set has as its system Enterococcus faecium. The data set can be described thus: Antibacterial activity against clinical isolates of penicillin-resistant Enterococcus faecium GMCH/R-Pen003 after overnight incubation by microdilution broth assay. The data set is classed as functional.
Data set [11] has as its system Escherichia coli. Briefly: Bactericidal activity against clinical isolates of Escherichia coli PGI/DML02292 assessed as disruption of cell structure at 4 times MIC after 30 mins by transmission electron microscopy relative to control. Format: functional, organism-based.
In the next data set the test system is Acinetobacter baumannii. The data set can be described thus: Antibacterial activity against clinical isolates of Acinetobacter baumannii GMCH/B0083 after overnight incubation by microdilution broth assay. Format: functional.

Converted amounts (≈) assume the structure as drawn. The source made the active and inactive calls. The rule behind the calls is not given here.

In the case of `CCCCCCCCCCCCCC(=O)NC(CCCN)C(=O)NC(CCCN)C(=O)NC(CCCN)C(N)=O` (stereo not drawn), the Activity entry in data set [1] is “Dose-dependent effect”; in the data set on Escherichia coli [6] it was 54%; with Escherichia coli [10], 14%. For the same compound, the result in the data set on Escherichia coli [2] and in the data set with Escherichia coli [11] was Active. Moreover, the mortality stood at 0% in [3], 60% in data set [5] and 0% in data set [8]. Also, the figures for the FC with Escherichia coli [4] and in the data set with Staphylococcus aureus were 5.41 and 3.07, respectively. Moreover, the Stability result in the data set with Plasma is reported as “Stable”. Also, the MIC with Enterococcus faecalis amounted to 4.5 µg/mL (≈ 7.9 µM); against Escherichia coli [7] it was 5.5 µg/mL (≈ 9.65 µM); in the data set on Streptococcus pneumoniae it was 4.5 µg/mL (≈ 7.9 µM); in data set [9], 3.1 µg/mL (≈ 5.44 µM); against Enterococcus faecium it was 3.1 µg/mL (≈ 5.44 µM); with Acinetobacter baumannii it was 2.5 µg/mL (≈ 4.39 µM). In addition, the Time with Mus musculus is more than 48 h.

The record behind these values is ChEMBL document CHEMBL3352151, “In vitro and in vivo antibacterial evaluation and mechanistic study of ornithine based small cationic lipopeptides against antibiotic resistant clinical isolates” (Eur J Med Chem, 2014).
